Assay results taken from PubChem BioAssay (NCI).
Where “and” joins values, the source holds several entries; their conditions need not be identical. Equal entries are not always repeated.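 All cell lines were grown in 96-well plates and treated with compound for 48 hours. Abbreviation: GI50, concentration required for 50% inhibition of growth. Definition used: TGI = concentration required for complete inhibition of growth.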

Tests used:
Test in all cases: inhibition of tumour cell growth, NCI panel, 48 h
RXF 393 renal = tested on: RXF 393 renal
SF-539 CNS = tested on: SF-539 CNS
EKVX NSCLC = tested on: EKVX NSCLC
NCI-H23 lung = tested on: NCI-H23 lung
A498 renal = tested on: A498 renal
U251 CNS = tested on: U251 CNS
COLO 205 colon = tested on: COLO 205 colon
DU-145 prostate = tested on: DU-145 prostate
SR leukemia = tested on: SR leukemia
OVCAR-3 ovarian = tested on: OVCAR-3 ovarian

SMILES	TGI (RXF 393 renal)	TGI (SF-539 CNS) [µM]	TGI (EKVX NSCLC) [µM]	TGI (NCI-H23 lung)	TGI (A498 renal)	TGI (U251 CNS)	TGI (COLO 205 colon)	TGI (DU-145 prostate) [µM]	TGI (SR leukemia)	TGI (OVCAR-3 ovarian)	GI50 (RXF 393 renal)	GI50 (SF-539 CNS)	GI50 (NCI-H23 lung)	GI50 (A498 renal) [µM]	GI50 (U251 CNS)	GI50 (COLO 205 colon)	GI50 (DU-145 prostate)	GI50 (SR leukemia)	GI50 (OVCAR-3 ovarian)	GI50 (EKVX NSCLC)
CC1=C(/C=C/C(C)=C/C=C/C(C)=C/C(=O)O)C(C)(C)CCC1	> 81.5 µM	75.7	> 100	79.3 µM	> 91.1 µM	70.7 µM	63.6 µM	> 100	> 87.4 µM	63.9 µM										
OCCNc1nc(Nc2ccc(Cl)c(Cl)c2)nc2ccccc12	18.4 µM	20.6		25.1 µM	13.9 µM	15.5 µM	3.07 µM	22.9	9.67 µM	19.9 µM	4.45 µM	5.68 µM	10.3 µM	1.5	3.7 µM	1.6 µM	11 µM	2.65 µM	7.51 µM	
CC(C)=CCC/C(C)=C\CCC1(C)OC(=O)C2CC21 (stereo not given)	92.3 µM		> 100	> 100 µM	> 100 µM	> 100 µM and 61.4 µM	> 100 µM	> 100	> 100 µM and 37.2 µM	> 100 µM					51.5 µM and 24.1 µM			24.3 µM and 6.4 µM		> 100 µM and 40 µM
O=[N+]([O-])c1cc(C(F)(F)F)ccc1Sc1ccc(C(F)(F)F)cc1[N+](=O)[O-]	> 100 µM	> 100	> 100	> 100 µM	30.6 µM	> 100 µM	> 100 µM	> 100	> 100 µM	54.9 µM	11.4 µM	9.15 µM	4.62 µM	7.22	12.9 µM	41.8 µM	10.6 µM	3.65 µM	5.11 µM	41.7 µM
COc1ccc2c(c1)C(=O)/C(=C/c1ccc([N+](=O)[O-])o1)O2	3.05 µM	3.91		4 µM	4.12 µM	3.43 µM	2.74 µM	3.97	1.23 µM	2.22 µM	1.39 µM	1.76 µM	1.8 µM	1.64	1.64 µM	1.3 µM	2.05 µM	0.198 µM	0.878 µM	
NS(=O)(=O)c1ccc(N(/C=C/C(=O)C(F)(F)F)Cc2ccc(Cl)cc2)cc1	47 µM	34	49.6	64.3 µM	41.2 µM	75.8 µM	> 100 µM	66	43.5 µM	> 100 µM	16 µM	17.4 µM	21.8 µM	17.4	26.5 µM	37.3 µM	22.1 µM	20.5 µM	30.3 µM	22.5 µM
CCCCCCCCCCCCCCCCCCOCC(CCP(=O)(CP(=O)(O)O)Oc1ccccc1)OCCCCCCCCCCCCCCCCCC (stereo not given)	> 100 µM	> 100	> 100	> 100 µM	> 100 µM	> 100 µM	> 100 µM	> 100	> 100 µM	> 100 µM										
CSC(=S)OC1CC(n2cnc3c(NC(=O)c4ccccc4)ncnc32)OC1CO[Si](C)(C)C(C)(C)C (stereo not given)	> 65.8 µM	> 46.4	> 56.2	> 56.2 µM	> 31.6 µM	44.4 µM	18.1 µM	42.6	> 50 µM	34.4 µM										
CC(=O)O[C@H]1[C@@H]2OC(=O)C(CSc3ccccc3)[C@@H]2C[C@H]2O[C@]2(C)CC/C=C(\C)CCC[C@@H]1C (stereo not given in full)	3.79 µM	23.3	12.9	22.2 µM	6.37 µM	16.5 µM	3.9 µM	5.6	> 20.1 µM	4.11 µM	1.88 µM	9.4 µM	3.51 µM	2.17	3.97 µM	1.75 µM	2.34 µM	1.69 µM	1.87 µM	3.27 µM
CCCCCCCCCNC(=O)/C=C/c1ccc(O)c(O)c1	50.9 µM	38.2	> 100	39.2 µM	32.1 µM	23.3 µM	54.3 µM	82.1	21 µM	24.3 µM	19.2 µM	15.1 µM	17.7 µM	16.2	10.2 µM	15.3 µM	17 µM	2.76 µM	5.95 µM	37.5 µM
N#Cc1cc(S(=O)(=O)Nc2nnc(-c3ccccc3)c(-c3ccccc3)n2)c(SCc2ccccc2)cc1Cl	22.7 µM	62.4	48.7	> 100 µM	45.2 µM	33.1 µM	> 100 µM	41.6	> 100 µM	31.5 µM	6.31 µM	30.2 µM	> 100 µM	23.5	17.8 µM	40.8 µM	20.1 µM	27.5 µM	15.3 µM	22.8 µM
CCc1ccc(C(=Nc2ccc(N(C)C(=O)CN3CCN(C)CC3)cc2)c2c(O)[nH]c3ccc(C(=O)OC)cc23)cc1	1.2 µM	1.56	2.36	2.03 µM	1.96 µM	2.02 µM	1.7 µM	1.84	0.835 µM	1.96 µM	0.22 µM	0.426 µM	0.417 µM	0.398	0.59 µM	0.319 µM	0.528 µM	0.164 µM	0.538 µM	0.788 µM
O=C(Nc1cccc(Cl)c1)c1cccc(NC2=C(Cl)C(=O)N(Cc3ccccc3)C2=O)c1	> 100 µM	> 100	> 100	> 100 µM	> 100 µM	> 100 µM	> 100 µM	> 100	10.5 µM	> 100 µM	85 µM	81.8 µM	> 100 µM	> 100	43.1 µM	> 100 µM	46 µM	2.32 µM	24.3 µM	> 100 µM
[N-]=[N+]=NCCCn1c2c(c3ccc([N+](=O)[O-])cc3c1=O)C(=O)c1cc(F)ccc1-2	54.6 µM	> 100	> 100	19 µM	72.2 µM	8.89 µM	> 100 µM	> 63.5	2.86 µM	26 µM	4.32 µM	2.38 µM	2.69 µM	11.8	0.539 µM	9.26 µM	0.547 µM	0.113 µM	3.76 µM	61.2 µM
Cc1ccc(NS(=O)(=O)c2cccc(C#N)c2)c2[nH]cc(C#N)c12	74.3 µM and 68.1 µM	> 81.2	80.9	84.6 µM and > 100 µM	5.32 µM and 51.2 µM	> 100 µM	53.7 µM and 37.3 µM	> 100	> 100 µM	60.2 µM and > 94.7 µM	17.6 µM and 1.99 µM	16.8 µM and 21.5 µM	27.5 µM and 27.7 µM		17.5 µM and 15.2 µM	14.2 µM and 1.51 µM	23.9 µM and 28.8 µM	18.2 µM and 6.8 µM	22 µM and 27.3 µM	26.6 µM
C/C(=C\c1cc(C(F)(F)F)n(-c2ccc(N)cc2)n1)[C@@H]1C[C@@H]2O[C@]2(C)CCC[C@H](C)[C@H](O)[C@@H](C)C(=O)C(C)(C)[C@@H](O)CC(=O)O1	0.379 µM	0.336	> 11.1	> 11.1 µM		> 11.1 µM	0.582 µM	0.265	2.18 µM	1.75 µM	0.032 µM	0.025 µM	0.0829 µM	0.0438	0.0477 µM	0.0162 µM	0.0372 µM	0.0225 µM	0.0182 µM	0.23 µM
C/C(O)=C(\C#N)C(=O)Nc1ccc(C(F)(F)F)cc1	> 100 µM	> 100		> 100 µM	52.9 µM	> 100 µM	> 100 µM	> 100	> 100 µM	> 100 µM	18.6 µM	16 µM	73.7 µM	1.36	5.34 µM	47.3 µM	46.7 µM	> 100 µM	37 µM	
CCOC(=O)C#Cc1c(C(=O)OCC)nnn1Cc1ccc([N+](=O)[O-])cc1	3.52 µM		32.9	26.9 µM	28.5 µM	20.9 µM	3.79 µM	14.2	4.4 µM		1.89 µM		8.2 µM	15.2	8.89 µM	1.97 µM	3.88 µM	1.15 µM		16.4 µM
CC1(C)NCCC[C@]2(C)[C@H]3CC[C@@H]4[C@H]5[C@H](C(=O)/C=C/c6ccccn6)CC[C@]5(CO)CC[C@@]4(C)[C@]3(C)CC[C@@H]12	8.08 µM	3.6	23.4	14 µM	23.5 µM	3.24 µM	4.28 µM	12.4	6.27 µM	4.89 µM	2.51 µM	1.78 µM	3.33 µM	8.7	1.68 µM	2.07 µM	3.56 µM	1.81 µM	2.14 µM	5.51 µM
CO/N=C(\COc1ccc2oc(-c3ccccc3)cc(=O)c2c1)c1ccc(OC)cc1	97.5 µM	64.7	> 100	> 100 µM	66.3 µM	53.6 µM	> 100 µM	> 100	36.9 µM	71 µM	29 µM	24.4 µM	32.4 µM	23.7	22.3 µM	30.8 µM	31 µM	11.3 µM	22.7 µM	37.3 µM
COc1cc(C2=N/C(=C/c3cccs3)C(=O)O2)cc(OC)c1OC	> 100 µM	> 100	> 100	> 100 µM	> 100 µM	> 100 µM	> 100 µM	> 100	> 100 µM	> 100 µM										
CCn1c(-c2nonc2N)nc2c(C#CC(C)(C)O)ncc(OC[C@H]3CCCNC3)c21	11.6 µM	16.9		> 96 µM	0.584 µM	21.9 µM	26.3 µM	73.8	41.8 µM	25.9 µM	0.228 µM	0.313 µM	23.5 µM	0.0469	0.533 µM	9.75 µM	12.9 µM	12 µM	6.92 µM	
CCCN(CCC)c1ccc(/C=N/NC(=O)c2cccnc2)c(OC)c1	84.8 µM	> 100	59.2	> 100 µM	17.9 µM	> 100 µM	46.3 µM	94.8	59.6 µM	36.7 µM	28.7 µM	28.3 µM	26.1 µM	2.27	23.2 µM	20.1 µM	27.8 µM	17.1 µM	16.9 µM	16.9 µM
COc1cc(-c2csc(NC(=O)Nc3ccc(C(F)(F)F)cc3)n2)cc(OC)c1OC	5.89 µM	6.68	10.2	8.81 µM	5.09 µM	4.32 µM	4.5 µM	12.8	6.79 µM	5.22 µM	2.18 µM	2.28 µM	2.48 µM	1.99	1.97 µM	2.1 µM	3.22 µM	2.39 µM	2 µM	2.15 µM
Fc1cccc(-n2ccc(-c3ccccc3)nc2=S)c1	30 µM	38.9	33.4	33.2 µM	33.3 µM	> 100 µM	3.82 µM	66.7	> 100 µM	40.6 µM	15.8 µM	17.6 µM	15 µM	17.2	43.2 µM		20.3 µM	53.6 µM	19 µM	17.7 µM
C=C1C(=O)O[C@H]2[C@H]1CC/C(COC(=O)C(C)c1ccc(CC(C)C)cc1)=C\CC[C@@]1(C)O[C@@H]21 (stereo not given in full)	2.75 µM	2.97	3.35	3.92 µM		2.89 µM	4.1 µM	2.95	1.86 µM	2.87 µM	1.38 µM	1.6 µM	1.77 µM		1.49 µM	1.91 µM	1.59 µM	0.287 µM	1.5 µM	1.75 µM
